Experiments:
[1] = tested on: CHO cells expressing CysLT1R, CysLT2R, or P2Y12 receptors; assay: Calcium flux in Fura-2-AM-loaded CHO transfectants; format: cell-based, human; settings: LTE4 500 nM, ADP 100 μM; ADP response reflects endogenous P2Y receptors
human blood platelets = assay: Platelet activation, cytofluorographic detection of P-selectin (CD62P); format: cell-based; settings: ADP 100 μM or LTE4 1 μM, 10 min
Protocol: (§1) FIG. 6. […] Each antibody (Ab) was diluted in 50 μl of sterile saline. […] 6A. PAS stains of the lungs of representative mice treated with isotype control (top) or with an anti-CD42 platelet-depleting antibody (bottom). 6B. Inflammation (top) and goblet cell metaplasia (bottom) in the lungs of mice treated with the indicated LT and antibody. A cohort of mice was treated with clopidogrel as indicated. Results in 6B are from a single experiment with 5 mice per group. […] 6C. […] Results are from a single experiment performed three times on different donors.
(§2) Platelets accumulate in the lungs of asthmatic individuals (Jeffery, P. K., et al. 1989. Am. Rev. Respir. Dis. 140:1745-1753), and are also recruited to the lungs of ovalbumin sensitized and challenged mice by an IgE-dependent mechanism (Pitchford, S. C., et al. 2008. Am. J. Respir. Crit. Care Med. 177:604-612).

human P2Y12 = human P2Y12 (Homo sapiens, UniProt Q9H244); assay: Binding of cys-LTs to membranes of CHO cells stably expressing the human P2Y12 receptor; parameters: polyhistidine (HIS) tag (C); expressed in transfected cells
Source text: A P2Y12 receptor cDNA was amplified by reverse transcriptase polymerase chain reaction (RT-PCR) from RNA extracted from primary hMCs and cloned into a mammalian expression vector. Expression was confirmed by detection of a histidine (HIS) tag by flow cytometry. Another cohort of CHO cells were stably transfected with a P2Y12 receptor construct in reverse orientation as a negative control. […] The cys-LT-induced ERK activation blocked by pre-treatment of the cells with pertussis toxin (PTX), was attenuated by treatment with the P2Y12 receptor-selective antagonist 2-methylthioadenosine monophosphate (2-MesAMP) (FIG. 1C), and was resistant to MK571, an inhibitor that blocks CysLT1R and some P2Y receptors (Mamedova, L., et al. 2005. Biochem. Pharmacol. 71:115-125). […] These responses were resistant to PTX and 2-MesAMP, and susceptible to MK571 in the case of the CysLT1R transfectants.
A human P2Y12 receptor cDNA was amplified by 30 cycles of PCR from reverse-transcribed total RNA extracted from primary cord blood hMCs. The primer sequences were 5′-[…] (SEQ ID NO: 1) and 3′-[…] (SEQ ID NO: 2). The fragment was cloned into a TA vector (INVITROGEN™). After verifying the nucleotide sequence, the fragment was subcloned into the multiple cloning site of the expression vector pEF1/His B, encoding a C-terminal polyhistidine (HIS) tag. A plasmid expressing the P2Y12 receptor construct in the forward orientation were transfected into CHO cells using Fugene HD reagent according to manufacturer's protocol. A construct in the reverse sequence was transfected in parallel as a negative control. […]
[^3H] […] Protein concentration was determined using Biorad Protein Assay Kit. […] The residual membrane-associated [^3H] on the filter was determined in 2 ml scintillation fluid by beta counter (Perkin Elmer). For [^3H]ADP, specific binding was determined by subtracting the amount of [^3H] bound in the presence of 100 μM 2-MesADP from total binding.

P2Y12 receptors [2] = molecular target: T1, P2Y12 receptors (Mus musculus, UniProt Q9CPV9); assay: Clopidogrel effect on LTE4-mediated amplification of OVA-induced pulmonary inflammation; format: in vivo; parameters: from tissue; host or cells: whole animal: BALB/c (OVA model) and C57BL/6 (Der f model) mice
Protocol: FIG. 4. […] 4A. […] Clopidogrel (500 μg/ml) was added to the drinking water of the indicated groups of mice for 72 h before the first intranasal dose of LTs, and was maintained throughout the treatment. Results are mean±SEM from at least 9 mice in each group. The experiments were repeated three times with similar results. 4B. PAS stains (left column) from representative mice in the indicated groups showing the effect of clopidigrel on goblet cell metaplasia. Higher magnification images of H & E stains (right) from the same animals showing cellular characteristics of the bronchovascular infiltrates. 4C. Effect of clopidogrel administration on the steady-state expression of IL-13 and MUC5AC mRNA as determined by real-time PCR of whole lung RNA extracted 24 h after the last OVA challenge of the indicated groups. Data are mean±SEM from 4-5 mice/group from a single experiment. Results in a second experiment were similar 4D-4F. […] 4D. Total cell numbers (top), percentages of eosinophils (middle), and total numbers of eosinophils in BAL fluid recovered 24 h after the last challenge with OVA. 4E. Goblet cell metaplasia (top) and representative PAS stains (bottom) from wild-type and p2ry12^−/− mice subjected to the same protocol. 4E. Inflammation scores from the same mice. Data in 4D-4F are from 4 mice per group. Results in a second experiment were similar 4G. BALB/c Cysltr1/Cysltr2^−/− mice and age-matched WT controls were subjected to the same protocol as the p2ry12^−/− mice. Total cell numbers (top), percentages of eosinophils (middle), and total numbers of eosinophils in BAL fluid recovered 24 h after the last challenge with OVA. Results are from 6 mice per group. Three experiments were performed with similar results. 4H. Goblet cell numbers (top) and representative PAS stains (bottom). 4I. Quantitative assessment of bronchovascular inflammation as determined by H & E stains. Results are from 6 mice/group.
FIG. 5. Effect of clopidogrel on LTE4-mediated amplification of pulmonary inflammation. 5A. […] The indicated mice were treated with clopidogrel for 72 h before the first dose of leukotriene. Results are mean±SEM from a minimum of 9 mice in each group. 5B. PAS stains (left column) from representative mice in the indicated groups showing the effect of clopidigrel on goblet cell metaplasia. Higher magnification images of H & E stains (right) from the same animals showing cellular characteristics of the bronchovascular infiltrates. 5C. Effect of clopidogrel administration on the steady-state expression of IL-13 and MUC5AC mRNA as determined by real-time PCR of whole lung RNA extracted 24 h after the last OVA challenge of the indicated groups. Data are mean±SEM from 4-5 mice/group. […]

P2Y12 receptors [3] = molecular target: T1, P2Y12 receptors; settings: both antigen doses (3 and 10 μg Der f)
Protocol: Role of P2Y12 receptors in inflammation mediated by dust mite allergen. C57BL/6 mice were treated intranasally with the indicated dose of Dermatophagoides farinae (Der f) extract twice weekly for 3 weeks. Animals were euthanized 24 h after the last dose. […] Effect of clopidogrel treatment on bronchovascular inflammation and goblet cell metaplasia in C57BL/6 mice subjected to intranasal challenge with the indicated doses of an extract from the house dust mite. Results are the mean±SEM from 5 mice/group. The experiment was repeated three times with similar results.
To determine whether pharmacologic blockade of P2Y12 receptors altered pulmonary inflammatory responses in a more physiologic model of pulmonary inflammation, C57BL/6 mice were administered an extract of house dust mite Dermatophagoides farinea (Der f) intranasally twice weekly for three weeks, with or without clopidogrel treatment. Two different doses of Der f were used to elicit moderate (at 3 μg) and severe (at 10 μg) inflammation, respectively.
For Der f-mediated pulmonary inflammation, 6-8 week old C57BL/6 mice were lightly anaesthetized and received either 3 or 10 μg of Der f extract (Greer Labs) on days 0, 3, 7, 10, 14 and 17. Some mice received clopidogrel throughout the duration of the experiment. Mice were euthanized 24 h after the last intranasal instillation.
2.5 μm thick glycolmethacrylate sections were stained with H&E for general morphologic examination. […] The extent of cellular infiltration in the bronchovascular bundles was evaluated without knowledge of the particular treatment and was categorized arbitrarily as grade 0=no inflammation, grade 1=mild inflammation, grade 2=moderate inflammation, grade 3=severe inflammation. 15 bronchovascular bundles of each mouse were evaluated. […] The length of basal lamina of corresponding bronchus was measured by Image J (NIH image analysis software). […] The data were expressed as the average of goblet cell counts stained in each bronchus in each section per mm bronchial basal lamina.

mouse CD42b (GPIbα) = assay: Platelet depletion in sensitized mice given LTE4 and low-dose OVA; settings: in vivo
Protocol: as §1, §2

P2Y receptor signaling = settings: mouse, in vivo; cited from earlier work
5-LO = molecular target: T2, 5-LO (Homo sapiens, UniProt P09917); settings: cited from earlier work
T2 sequence (P09917 1-674): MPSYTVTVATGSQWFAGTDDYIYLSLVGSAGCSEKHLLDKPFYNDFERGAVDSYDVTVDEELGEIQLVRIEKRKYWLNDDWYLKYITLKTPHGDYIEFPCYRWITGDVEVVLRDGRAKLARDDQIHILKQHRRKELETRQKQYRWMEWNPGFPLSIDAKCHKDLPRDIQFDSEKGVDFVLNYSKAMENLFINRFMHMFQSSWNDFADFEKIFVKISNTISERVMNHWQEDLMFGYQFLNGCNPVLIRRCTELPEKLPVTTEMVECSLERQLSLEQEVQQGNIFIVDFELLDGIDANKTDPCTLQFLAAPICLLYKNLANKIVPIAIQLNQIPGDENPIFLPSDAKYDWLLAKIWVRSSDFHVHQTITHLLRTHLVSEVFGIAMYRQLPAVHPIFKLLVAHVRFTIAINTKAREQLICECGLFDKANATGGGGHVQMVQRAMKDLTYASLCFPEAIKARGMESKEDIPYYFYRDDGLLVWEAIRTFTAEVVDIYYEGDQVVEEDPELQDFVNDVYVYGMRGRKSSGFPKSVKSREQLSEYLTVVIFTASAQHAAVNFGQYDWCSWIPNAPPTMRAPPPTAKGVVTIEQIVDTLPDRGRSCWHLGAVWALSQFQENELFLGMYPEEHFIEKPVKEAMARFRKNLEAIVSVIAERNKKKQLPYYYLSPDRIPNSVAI

[4] = clopidogrel 500 μg/ml in drinking water

T1 sequence (Q9CPV9 whole entry): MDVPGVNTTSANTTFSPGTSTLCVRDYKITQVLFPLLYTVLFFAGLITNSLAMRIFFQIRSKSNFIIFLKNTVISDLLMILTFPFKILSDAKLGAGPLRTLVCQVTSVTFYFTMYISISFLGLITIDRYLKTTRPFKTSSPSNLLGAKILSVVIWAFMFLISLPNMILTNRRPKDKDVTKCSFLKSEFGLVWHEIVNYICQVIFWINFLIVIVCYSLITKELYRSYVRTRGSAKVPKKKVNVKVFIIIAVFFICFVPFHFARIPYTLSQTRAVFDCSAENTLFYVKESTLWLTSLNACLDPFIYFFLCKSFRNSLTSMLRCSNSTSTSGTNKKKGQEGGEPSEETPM
Chain of human P2Y12 (Q9H244 whole entry): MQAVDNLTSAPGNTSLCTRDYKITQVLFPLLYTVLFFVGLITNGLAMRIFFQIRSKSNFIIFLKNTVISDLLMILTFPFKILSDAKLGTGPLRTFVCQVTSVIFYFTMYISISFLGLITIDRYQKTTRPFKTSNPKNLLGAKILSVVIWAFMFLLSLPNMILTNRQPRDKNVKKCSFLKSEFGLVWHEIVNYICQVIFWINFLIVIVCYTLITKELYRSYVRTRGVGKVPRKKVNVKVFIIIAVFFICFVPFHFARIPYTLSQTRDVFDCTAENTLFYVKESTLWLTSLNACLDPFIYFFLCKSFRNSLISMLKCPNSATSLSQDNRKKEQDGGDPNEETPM

Nc1ncnc2c1ncn2[C@@H]1O[C@H](COP(=O)(O)OP(=O)(O)O)[C@@H](O)[C@H]1O [ADP, adenosine diphosphate]
calcium flux [1]: did exhibit a response
CD62P expression by platelets (human blood platelets): elicited CD62P expression

CCCCC/C=C\C\C=C/C=C/C=C/[C@@H](SC[C@H](NC(=O)CC[C@H](N)C(=O)O)C(=O)NCC(=O)O)[C@@H](O)CCCC(=O)O [LTC4]
binding to membranes of the transfectants (human P2Y12): also bound

COC(=O)C(c1ccccc1Cl)N1CCc2sccc2C1 (stereo not drawn) [clopidogrel, methyl alpha-5 (4,5,6,7-tetrahydro (3,2-c)thienopyridyl)(2-chlorophenyl)-acetate]
LTE4-induced potentiation of goblet cell metaplasia (P2Y12 receptors [2]; [4]): complete lack of LTE4-induced potentiation
LTE4-induced potentiation of inflammation (P2Y12 receptors [2]; [4]): complete lack of LTE4-induced potentiation
lung expression of IL-13 and MUC5AC mRNA (real-time PCR) (P2Y12 receptors [2]; whole lung RNA 24 h after last OVA challenge): substantially suppressed the expression of both
attenuation of BAL fluid eosinophilia (P2Y12 receptors [3]): ~75%
goblet cell metaplasia (P2Y12 receptors [3]): significant reductions
pulmonary inflammation (P2Y12 receptors [3]): significant reductions
LTE4-mediated expression of mRNA encoding IL-13 and MUC5AC (mouse CD42b (GPIbα)): sharply reduced
combination of platelet depletion with clopidogrel (mouse CD42b (GPIbα)): not additive

Cc1ccc(C(=O)Nc2ccc(S(=O)(=O)O)c3cc(S(=O)(=O)O)cc(S(=O)(=O)O)c23)cc1NC(=O)c1cccc(NC(=O)Nc2cccc(C(=O)Nc3cc(C(=O)Nc4ccc(S(=O)(=O)O)c5cc(S(=O)(=O)O)cc(S(=O)(=O)O)c45)ccc3C)c2)c1 [suramin]
allergen-induced pulmonary inflammation and AHR (P2Y receptor signaling): dramatically inhibited

CC(c1cc2ccccc2s1)N(O)C(N)=O (stereo not shown) [zileuton]
block of cys-LT generation in vivo (5-LO): ~50%
